Patent US6355799B1, “Substituted benzene compounds, process for their preparation, and herbicidal and defoliant compositions containing them” (ISK Americas Incorporated, priority 1997, dated 2002)

What was measured:
Format in all cases: in vivo
[1] = tested on: redroot pigweed (Amaranthus retroflexus, AMARE); assay: Pre-emerge test, greenhouse herbicide activity screening; details: rated 14 days after application, 0 = no damage, 100 = complete death
Method in brief: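 Compounds in acetone were track-sprayed at 15-1000 g ai/ha (187 l/ha) on sandy loam pots: pre-emerge one day after seeding, post-emerge at 2-3 leaf stage with 0.25% v/v non-ionic surfactant. Phytotoxicity was rated 14 days later on a 0 (no damage) to 100 (complete death) scale.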

[2] = tested on: field corn (Zea mays L., var. Dekalb 535, CORN); assay: Post-emerge test, crop safety; details: post-emerge, 14 days after application, rating scale 0-100
Method in brief: (§1)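 Plants grown in 10 cm pots of sandy loam mix received acetone-dissolved compounds through a moving flat-fan nozzle. Doses ranged from 15 to 1000 g ai/ha. Pre-emerge pots were seeded one day earlier, post-emerge pots 8–21 days earlier. Fourteen days on, each pot was graded 0–100 for damage.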

[3] = tested on: upland rice (Oryza sp., var. Tebonnet, RICE); assay: Post-emerge test, crop safety; details: post-emerge, 14 days after application, rating scale 0-100
Method in brief: as §1

[4] = tested on: field corn (Zea mays L., var. Dekalb 535, CORN); assay: Pre-emerge test, crop safety; details: rated 14 days after application, 0 = no damage, 100 = complete death
Method in brief: (§2)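 Applied at 15–1000 g ai/ha from acetone in 187 l/ha spray volume. Post-emergence applications included 0.25% v/v non-ionic surfactant and reached plants sown 8–21 days before. Pre-emergence applications were incorporated by surface watering. Efficacy or crop damage was rated on a 0–100 scale after 14 days.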

[5] = tested on: upland rice (Oryza sp., var. Tebonnet, RICE); assay: Pre-emerge test, crop safety; details: rated 14 days after application, 0 = no damage, 100 = complete death
Method in brief: as §2

[6] = tested on: ivyleaf morningglory (Ipomoea hederacea, IPOHE); assay: Pre-emerge test, greenhouse herbicide activity screening; details: rated 14 days after application, 0 = no damage, 100 = complete death
Method in brief: (§3)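 Rating: 0–100 visual injury, 14 DAA. Application: acetone, 187 l/ha, 15–1000 g ai/ha, flat-fan track sprayer with nozzle 40–45 cm above soil or canopy. Post-emerge runs used 0.25% v/v surfactant on 2–3 leaf plants.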

[7] = tested on: velvetleaf (Abutilon theophrasti, ABUTH); assay: as above; details: rated 14 days after application, 0 = no damage, 100 = complete death
Method in brief: as §3

[8] = tested on: green foxtail (Setaria viridis, SETVI); assay: as above; details: rated 14 days after application, 0 = no damage, 100 = complete death
Method in brief: as §3

[9] = tested on: johnsongrass (Sorghum halepense, SORHA); assay: as above; details: rated 14 days after application, 0 = no damage, 100 = complete death
Method in brief: as §3

[10] = tested on: barnyardgrass (Echinochloa crus-galli, ECHCG); assay: as above; details: rated 14 days after application, 0 = no damage, 100 = complete death
Method in brief: as §3

[11] = tested on: sicklepod (Cassia obtusifolia, CASOB); assay: as above; details: rated 14 days after application, 0 = no damage, 100 = complete death
Method in brief: as §3

[12] = tested on: lambsquarters (Chenopodium album, CHEAL); assay: as above; details: rated 14 days after application, 0 = no damage, 100 = complete death
Method in brief: as §3

[13] = tested on: large crabgrass (Digitaria sanguinalis, DIGSA); assay: as above; details: rated 14 days after application, 0 = no damage, 100 = complete death
Method in brief: as §3

[14] = tested on: ivyleaf morningglory (Ipomoea hederacea, IPOHE); assay: Post-emerge test, greenhouse herbicide activity screening; details: post-emerge, 14 days after application, rating scale 0-100
Method in brief: (§4)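 Herbicidal damage is scored 0 (none) to 100 (complete plant death) two weeks after a simulated field spray. Rates span 15–1000 g ai/ha, delivered in acetone at 187 l/ha. For post-emergence treatments, plants have 2–3 leaves and the spray carries 0.25% v/v non-ionic surfactant.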

[15] = tested on: velvetleaf (Abutilon theophrasti, ABUTH); assay: as above; details: post-emerge, 14 days after application, rating scale 0-100
Method in brief: as §4

[16] = tested on: green foxtail (Setaria viridis, SETVI); assay: as above; details: post-emerge, 14 days after application, rating scale 0-100
Method in brief: as §4

[17] = tested on: johnsongrass (Sorghum halepense, SORHA); assay: as above; details: post-emerge, 14 days after application, rating scale 0-100
Method in brief: as §4

[18] = tested on: redroot pigweed (Amaranthus retroflexus, AMARE); assay: as above; details: post-emerge, 14 days after application, rating scale 0-100
Method in brief: as §4

[19] = tested on: barnyardgrass (Echinochloa crus-galli, ECHCG); assay: as above; details: post-emerge, 14 days after application, rating scale 0-100
Method in brief: as §4

[20] = tested on: sicklepod (Cassia obtusifolia, CASOB); assay: as above; details: post-emerge, 14 days after application, rating scale 0-100
Method in brief: as §4

[21] = tested on: lambsquarters (Chenopodium album, CHEAL); assay: as above; details: post-emerge, 14 days after application, rating scale 0-100
Method in brief: as §4

[22] = tested on: large crabgrass (Digitaria sanguinalis, DIGSA); assay: as above; details: post-emerge, 14 days after application, rating scale 0-100
Method in brief: as §4

Cn1c(C(F)(F)F)cc(=O)n(-c2c(F)cc(Cl)c(OCC#N)c2NC(=O)CCc2ccccc2)c1=O [2-87]
5: Pre-emerge phytotoxicity rating (0-100), crop damage, CORN ([4]; 63 g ai/ha)
60: Pre-emerge Herbicidal Activity, phytotoxicity rating (0-100), ECHCG ([10]; 63 g ai/ha)
80: phytotoxicity rating CORN ([2]; 250 g ai/ha) | Pre-emerge Herbicidal Activity, phytotoxicity rating (0-100), DIGSA ([13]; 63 g ai/ha) | phytotoxicity rating CHEAL ([21]; 63 g ai/ha)
30: phytotoxicity rating CORN ([2]; 63 g ai/ha) | phytotoxicity rating SETVI ([16]; 63 g ai/ha)
40: phytotoxicity rating RICE ([3]; 63 g ai/ha) | Pre-emerge phytotoxicity rating (0-100), crop damage, RICE ([5]; 63 g ai/ha) | phytotoxicity rating SETVI ([16]; 250 g ai/ha) | phytotoxicity rating CASOB ([20]; 63 g ai/ha)
100: Pre-emerge Herbicidal Activity, phytotoxicity rating (0-100), AMARE ([1]; 63 g ai/ha) | Pre-emerge Herbicidal Activity, phytotoxicity rating (0-100), AMARE ([1]; 250 g ai/ha) | Pre-emerge Herbicidal Activity, phytotoxicity rating (0-100), IPOHE ([6]; 250 g ai/ha) | Pre-emerge Herbicidal Activity, phytotoxicity rating (0-100), ABUTH ([7]; 63 g ai/ha) | Pre-emerge Herbicidal Activity, phytotoxicity rating (0-100), ABUTH ([7]; 250 g ai/ha) | Pre-emerge Herbicidal Activity, phytotoxicity rating (0-100), SETVI ([8]; 250 g ai/ha) | Pre-emerge Herbicidal Activity, phytotoxicity rating (0-100), CASOB ([11]; 63 g ai/ha) | Pre-emerge Herbicidal Activity, phytotoxicity rating (0-100), CASOB ([11]; 250 g ai/ha) | Pre-emerge Herbicidal Activity, phytotoxicity rating (0-100), CHEAL ([12]; 63 g ai/ha) | Pre-emerge Herbicidal Activity, phytotoxicity rating (0-100), CHEAL ([12]; 250 g ai/ha) | Pre-emerge Herbicidal Activity, phytotoxicity rating (0-100), DIGSA ([13]; 250 g ai/ha) | phytotoxicity rating IPOHE ([14]; 63 g ai/ha) | phytotoxicity rating IPOHE ([14]; 250 g ai/ha) | phytotoxicity rating ABUTH ([15]; 63 g ai/ha) | phytotoxicity rating ABUTH ([15]; 250 g ai/ha) | phytotoxicity rating AMARE ([18]; 63 g ai/ha) | phytotoxicity rating AMARE ([18]; 250 g ai/ha) | phytotoxicity rating CASOB ([20]; 250 g ai/ha)
75: phytotoxicity rating RICE ([3]; 250 g ai/ha) | Pre-emerge phytotoxicity rating (0-100), crop damage, CORN ([4]; 250 g ai/ha)
50: Pre-emerge Herbicidal Activity, phytotoxicity rating (0-100), SORHA ([9]; 63 g ai/ha) | phytotoxicity rating SORHA ([17]; 250 g ai/ha) | phytotoxicity rating ECHCG ([19]; 250 g ai/ha) | phytotoxicity rating DIGSA ([22]; 250 g ai/ha)
85: Pre-emerge Herbicidal Activity, phytotoxicity rating (0-100), SORHA ([9]; 250 g ai/ha)
10: phytotoxicity rating SORHA ([17]; 63 g ai/ha) | phytotoxicity rating ECHCG ([19]; 63 g ai/ha) | phytotoxicity rating DIGSA ([22]; 63 g ai/ha)
90: Pre-emerge phytotoxicity rating (0-100), crop damage, RICE ([5]; 250 g ai/ha) | Pre-emerge Herbicidal Activity, phytotoxicity rating (0-100), IPOHE ([6]; 63 g ai/ha) | Pre-emerge Herbicidal Activity, phytotoxicity rating (0-100), SETVI ([8]; 63 g ai/ha) | Pre-emerge Herbicidal Activity, phytotoxicity rating (0-100), ECHCG ([10]; 250 g ai/ha) | phytotoxicity rating CHEAL ([21]; 250 g ai/ha)

COc1c(Cl)cc(F)c(-n2c(=O)cc(C(F)(F)F)n(C)c2=O)c1NC(=O)COCc1ccccc1 [2-89]
60: phytotoxicity rating RICE ([3]; 63 g ai/ha) | Pre-emerge Herbicidal Activity, phytotoxicity rating (0-100), SORHA ([9]; 63 g ai/ha) | phytotoxicity rating CASOB ([20]; 250 g ai/ha) | phytotoxicity rating CHEAL ([21]; 63 g ai/ha)
0: phytotoxicity rating CORN ([2]; 63 g ai/ha) | phytotoxicity rating CORN ([2]; 250 g ai/ha) | phytotoxicity rating SORHA ([17]; 63 g ai/ha) | phytotoxicity rating ECHCG ([19]; 63 g ai/ha) | phytotoxicity rating DIGSA ([22]; 63 g ai/ha) | phytotoxicity rating DIGSA ([22]; 250 g ai/ha)
50: Pre-emerge Herbicidal Activity, phytotoxicity rating (0-100), ECHCG ([10]; 63 g ai/ha) | phytotoxicity rating CASOB ([20]; 63 g ai/ha)
100: Pre-emerge Herbicidal Activity, phytotoxicity rating (0-100), AMARE ([1]; 63 g ai/ha) | Pre-emerge Herbicidal Activity, phytotoxicity rating (0-100), AMARE ([1]; 250 g ai/ha) | Pre-emerge Herbicidal Activity, phytotoxicity rating (0-100), IPOHE ([6]; 250 g ai/ha) | Pre-emerge Herbicidal Activity, phytotoxicity rating (0-100), ABUTH ([7]; 63 g ai/ha) | Pre-emerge Herbicidal Activity, phytotoxicity rating (0-100), ABUTH ([7]; 250 g ai/ha) | Pre-emerge Herbicidal Activity, phytotoxicity rating (0-100), SETVI ([8]; 63 g ai/ha) | Pre-emerge Herbicidal Activity, phytotoxicity rating (0-100), SETVI ([8]; 250 g ai/ha) | Pre-emerge Herbicidal Activity, phytotoxicity rating (0-100), CASOB ([11]; 250 g ai/ha) | Pre-emerge Herbicidal Activity, phytotoxicity rating (0-100), CHEAL ([12]; 63 g ai/ha) | Pre-emerge Herbicidal Activity, phytotoxicity rating (0-100), CHEAL ([12]; 250 g ai/ha) | Pre-emerge Herbicidal Activity, phytotoxicity rating (0-100), DIGSA ([13]; 250 g ai/ha) | phytotoxicity rating IPOHE ([14]; 250 g ai/ha) | phytotoxicity rating ABUTH ([15]; 63 g ai/ha) | phytotoxicity rating ABUTH ([15]; 250 g ai/ha) | phytotoxicity rating AMARE ([18]; 250 g ai/ha)
10: Pre-emerge phytotoxicity rating (0-100), crop damage, CORN ([4]; 63 g ai/ha) | phytotoxicity rating SORHA ([17]; 250 g ai/ha) | phytotoxicity rating ECHCG ([19]; 250 g ai/ha)
30: Pre-emerge phytotoxicity rating (0-100), crop damage, CORN ([4]; 250 g ai/ha)
20: phytotoxicity rating SETVI ([16]; 63 g ai/ha) | phytotoxicity rating SETVI ([16]; 250 g ai/ha)
70: phytotoxicity rating RICE ([3]; 250 g ai/ha) | phytotoxicity rating AMARE ([18]; 63 g ai/ha)
40: Pre-emerge phytotoxicity rating (0-100), crop damage, RICE ([5]; 63 g ai/ha)
90: Pre-emerge phytotoxicity rating (0-100), crop damage, RICE ([5]; 250 g ai/ha) | Pre-emerge Herbicidal Activity, phytotoxicity rating (0-100), SORHA ([9]; 250 g ai/ha) | Pre-emerge Herbicidal Activity, phytotoxicity rating (0-100), ECHCG ([10]; 250 g ai/ha) | phytotoxicity rating IPOHE ([14]; 63 g ai/ha) | phytotoxicity rating CHEAL ([21]; 250 g ai/ha)
99: Pre-emerge Herbicidal Activity, phytotoxicity rating (0-100), DIGSA ([13]; 63 g ai/ha)
95: Pre-emerge Herbicidal Activity, phytotoxicity rating (0-100), IPOHE ([6]; 63 g ai/ha) | Pre-emerge Herbicidal Activity, phytotoxicity rating (0-100), CASOB ([11]; 63 g ai/ha)
